# Test results taken from US9079895B2, “Morpholino compounds, uses and methods” (University of Dundee, priority 2012, dated 2015).
# What was measured:
# Settings in all cases: average of at least two experiments
# 5HT4 receptor = 5HT4 receptor (Homo sapiens (Human), UniProt Q13639); test: Secondary radioligand binding assay, 5HT4; set-up: key: “—” indicates that a binding interaction was not detected
# Experimental: 1. Secondary Radioligand Binding Assays The detailed experimental protocols for the radioligand and functional receptor assays are available on the NIMH PDSP website at http://pdsp.med.unc.edu/UNC-CH %20Protocol %20Book.pdf. Assay Buffer: Standard Binding Buffer (50 mM Tris-HCl, 10 mM MgCl2, 1 mM EDTA, pH 7.4) Membrane Fraction Source: Transiently or stably transfected cell lines (e.g., HEK293, COS, CHO, NIH3T3) Protocol adapted from Roth et al. (1986), J. Pharmacol. Exp. Ther., 238(2): 480-485; and Roth et al. (1994), J. Pharmacol. Exp. Ther., 268(3): 1403-1410. […] A similar stock of a reference compound (positive control) is also prepared. […] Radioligand is diluted to five times the assay concentration (see Table 18) in Standard Binding Buffer. Typically, the assay concentration of radioligand is a value between one half the KD and the KD of a particular radioligand at its target. 50 μl aliquots of radioligand are dispensed into the wells of a 96-well plate containing 100 μl of Standard Binding Buffer. Then, duplicate 50 μl aliquots of the test and reference compound dilutions are added. Finally, crude membrane fractions of cells expressing recombinant target (prepared from 10 cm plates by harvesting PBS-rinsed monolayers, resuspending and lysing in chilled, hypotonic 50 mM Tris-HCl, pH 7.4, centrifuging at 20,000×g, decanting the supernatant and storing at −80° C.; typically, one 10 cm plate provides sufficient material for 24 wells), are resuspended in 3 ml of chilled Standard Binding Buffer and homogenized by several passages through a 26 gauge needle, then 50 μl are dispensed into each well. […] Four rapid 500 μl washes are performed with chilled Standard Binding Buffer to reduce non-specific binding. Filters are placed in 6 ml scintillation tubes and allowed to dry overnight. The next day, 4 ml of EcoScint scintillation cocktail (National Diagnostics) are added to each tube. The tubes are capped, labeled, and counted by liquid scintillation counting. For higher throughput assays, bound radioactivity is harvested onto 0.3% polyethyleneimine-treated, 96-well filter mats using a 96-well Filtermate harvester. The filter mats are dried, then scintillant is melted onto the filters and the radioactivity retained on the filters is counted in a Microbeta scintillation counter. Raw data (dpm) representing total radioligand binding (i.e. specific+non-specific binding) are plotted as a function of the logarithm of the molar concentration of the competitor (i.e. test or reference compound).
# 5HT1d receptor = 5HT1d receptor (Homo sapiens (Human), UniProt P28221); test: Secondary radioligand binding assay, 5HT1d; set-up: key to Ki 5HT1d: “—” indicates that a binding interaction was not detected;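 note: competition binding against a radioligand on membranes from transfected cell lines, 1.5 h at room temperature, filter-retained radioactivity counted by liquid scintillation, total binding plotted versus log competitor concentration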
# 5HT1d receptor, sequence (P28221 whole entry): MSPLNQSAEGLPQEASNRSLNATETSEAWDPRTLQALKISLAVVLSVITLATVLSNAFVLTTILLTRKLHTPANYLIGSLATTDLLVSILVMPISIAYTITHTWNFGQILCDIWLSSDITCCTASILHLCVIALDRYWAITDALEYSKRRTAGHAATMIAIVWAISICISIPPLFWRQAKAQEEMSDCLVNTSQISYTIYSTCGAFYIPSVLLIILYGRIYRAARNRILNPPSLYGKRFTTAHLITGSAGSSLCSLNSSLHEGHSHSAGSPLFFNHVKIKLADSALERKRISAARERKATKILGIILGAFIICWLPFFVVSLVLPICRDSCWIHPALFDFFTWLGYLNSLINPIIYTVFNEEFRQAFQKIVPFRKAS
# 5HT5 receptor = 5HT5 receptor (Homo sapiens (Human), UniProt P47898); test: Secondary radioligand binding assay, 5HT5; set-up: key: “—” indicates that a binding interaction was not detected;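 note: competitive radioligand displacement on membranes from transfected cell lines, incubated at room temperature in the dark, filter-retained radioactivity counted by liquid scintillation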
# 5HT5 receptor, sequence (P47898 whole entry): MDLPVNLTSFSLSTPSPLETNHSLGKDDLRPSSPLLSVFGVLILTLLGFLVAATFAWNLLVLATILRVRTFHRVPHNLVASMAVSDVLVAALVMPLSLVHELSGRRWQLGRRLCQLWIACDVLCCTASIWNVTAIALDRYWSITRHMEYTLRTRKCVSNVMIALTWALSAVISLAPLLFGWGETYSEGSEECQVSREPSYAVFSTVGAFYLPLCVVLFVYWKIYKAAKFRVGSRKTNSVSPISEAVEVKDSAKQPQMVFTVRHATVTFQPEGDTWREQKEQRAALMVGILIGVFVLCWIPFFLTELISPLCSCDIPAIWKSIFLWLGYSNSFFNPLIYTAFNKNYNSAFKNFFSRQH
# 5HT2a receptor = 5HT2a receptor (Homo sapiens (Human), UniProt P28223); test: Secondary radioligand binding assay, 5HT2a
# 5HT2a receptor, sequence (P28223 whole entry): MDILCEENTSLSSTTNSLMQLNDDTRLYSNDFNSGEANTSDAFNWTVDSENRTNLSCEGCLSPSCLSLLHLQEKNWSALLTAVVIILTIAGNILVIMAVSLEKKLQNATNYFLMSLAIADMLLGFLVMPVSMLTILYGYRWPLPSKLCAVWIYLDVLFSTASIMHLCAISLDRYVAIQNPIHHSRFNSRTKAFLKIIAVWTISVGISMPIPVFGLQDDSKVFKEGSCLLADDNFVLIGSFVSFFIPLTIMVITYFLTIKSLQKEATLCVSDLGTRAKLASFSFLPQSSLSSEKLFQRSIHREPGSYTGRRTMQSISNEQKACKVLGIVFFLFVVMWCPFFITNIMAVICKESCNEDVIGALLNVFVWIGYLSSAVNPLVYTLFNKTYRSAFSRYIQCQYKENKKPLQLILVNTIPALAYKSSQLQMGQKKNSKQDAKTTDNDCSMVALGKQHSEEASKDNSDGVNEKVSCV
# 5HT1a receptor = 5HT1a receptor (Homo sapiens (Human), UniProt P08908); test: Secondary radioligand binding assay, 5HT1a
# 5HT1a receptor, sequence (P08908 whole entry): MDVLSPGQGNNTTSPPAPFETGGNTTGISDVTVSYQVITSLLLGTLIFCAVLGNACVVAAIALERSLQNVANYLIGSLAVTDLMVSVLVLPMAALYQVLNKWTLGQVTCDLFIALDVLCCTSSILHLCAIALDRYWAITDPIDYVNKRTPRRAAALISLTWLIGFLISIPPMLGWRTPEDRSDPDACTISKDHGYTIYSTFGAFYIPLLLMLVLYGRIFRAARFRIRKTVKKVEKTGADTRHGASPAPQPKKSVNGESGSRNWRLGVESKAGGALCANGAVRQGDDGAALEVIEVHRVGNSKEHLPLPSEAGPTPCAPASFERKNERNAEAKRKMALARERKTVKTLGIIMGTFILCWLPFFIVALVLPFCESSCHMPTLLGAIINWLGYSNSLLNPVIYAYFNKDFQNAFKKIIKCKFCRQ
# 5HT4 receptor, sequence (Q13639 whole entry): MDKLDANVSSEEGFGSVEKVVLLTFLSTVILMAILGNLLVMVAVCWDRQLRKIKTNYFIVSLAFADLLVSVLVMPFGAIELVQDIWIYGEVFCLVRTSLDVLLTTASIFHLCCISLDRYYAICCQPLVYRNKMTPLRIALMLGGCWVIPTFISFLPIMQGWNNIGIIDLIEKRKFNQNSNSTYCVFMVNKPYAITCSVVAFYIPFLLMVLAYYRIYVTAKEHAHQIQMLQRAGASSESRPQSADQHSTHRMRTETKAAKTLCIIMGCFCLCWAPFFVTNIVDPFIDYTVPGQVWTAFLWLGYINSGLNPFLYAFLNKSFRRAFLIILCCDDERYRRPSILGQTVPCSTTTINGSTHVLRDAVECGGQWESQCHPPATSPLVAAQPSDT
Ki 5HT4 (5HT4 receptor),Ki 5HT1d (5HT1d receptor),Ki 5HT5 (5HT5 receptor),Ki (5HT1a receptor),Structure (SMILES),Ki (5HT2a receptor)
—,—,—,,Cc1ccnc(OC[C@H]2CN(CC(=O)N3CCc4ccccc43)CCO2)c1 [Compound 16r],
—,—,—,,"Clc1cccc(OC[C@H]2CN(CCN3CCc4ccccc43)CCO2)c1 [Compound 23r, (R)-2-((3-Chlorophenoxy)methyl)-4-(2-(indolin-1-yl)ethyl)morpholine]",2670 nM
—,—,—,,"Cc1ncccc1OC[C@H]1CN(CCN2CCc3ccccc32)CCO1 [Compound 26r, (R)-4-(2-(Indolin-1-yl)ethyl)-2-(((2-methylpyridin-3-yl)oxy)methyl)morpholine]",
—,—,—,,"Clc1cncc(OC[C@H]2CN(CCN3CCc4ccccc43)CCO2)c1 [Compound 27r, (R)-2-(((5-Chloropyridin-3-yl)oxy)methyl)-4-(2-(indolin-1-yl)ethyl)morpholine]",
—,—,—,592 nM,Cc1ncccc1OC[C@@H]1CN(CC(=O)N2c3ccccc3CC2C)CCO1.Cl (some centres unmarked) [Compound 60],
—,—,—,6590 nM,Cc1ncccc1OC[C@H]1CN(CC(=O)N2c3ccccc3CC2C)CCO1 (some centres unmarked) [Compound 62],
—,—,—,5020 nM,Cc1ncccc1OC[C@H]1CN(CC(=O)N2c3ccccc3C[C@H]2C)CCO1 [Compound 63],
—,—,—,> 10000 nM,C[C@@H]1Cc2ccccc2N1C(=O)CN1CCO[C@@H](COc2ccncc2)C1 [Compound 67],
—,—,—,> 10000 nM,CC1Cc2ccccc2N1C(=O)CN1CCO[C@@H](COc2ccncc2)C1 (some centres unmarked) [Compound 68],
—,—,—,> 10000 nM,CC1Cc2ccccc2N1C(=O)CN1CCO[C@@H](COc2ccccn2)C1 (some centres unmarked) [Compound 69],

Structure (SMILES),Ki 5HT4 (5HT4 receptor),Ki 5HT1d (5HT1d receptor),Ki 5HT5 (5HT5 receptor),Ki (5HT1a receptor),Ki (5HT2a receptor)
"O=C(CN1CCO[C@@H](COc2ccccn2)C1)N1CCc2ccccc21 [Compound 14r, (R)-1-(Indolin-1-yl)-2-(2-((pyridin-2-yloxy)methyl)morpholino)ethanone]",—,—,—,,
"O=C(CN1CCO[C@@H](COc2cccnc2)C1)N1CCc2ccccc21 [Compound 20r, (R)-1-(Indolin-1-yl)-2-(2-((pyridin-3-yloxy)methyl)morpholino)ethanone]",—,—,—,,2660 nM
"O=C(CN1CCO[C@H](COc2cccnc2)C1)N1CCc2ccccc21 [Compound 20s, (S)-1-(Indolin-1-yl)-2-(2-((pyridin-3-yloxy)methyl)morpholino)ethanone]",—,—,—,,
"COc1cccc(OC[C@@H]2CN(CC(=O)N3CCc4ccccc43)CCO2)c1 [Compound 24s, (S)-1-(Indolin-1-yl)-2-(2-((3-methoxyphenoxy)methyl)morpholino)ethanone]",—,—,—,371 nM,1940 nM
"Cc1ccc(OC[C@H]2CN(CCN3CCc4ccccc43)CCO2)cn1 [Compound 28r, (R)-4-(2-(Indolin-1-yl)ethyl)-2-(((6-methylpyridin-3-yl)oxy)methyl)morpholine]",—,—,—,,1480 nM
